“Also recorded” adds a separate entry of the source.
System: human skin tissues
Test: UV irradiation of human skin explants, cleaved caspase-3 immunohistochemical staining
Type: cell-based
Procedure: MAAs extracted from the engineered bacteria of the present invention were evaluated. Human skin was obtained from discarded tissue from elective procedures. The skin tissue was cleaned, trimmed, sterilized and plated in an organ culture medium overnight at 33° C. MAA extract or appropriate controls were applied on skin tissues, after which they were exposed to 135 mJ/cm2 UV-A and UV-B light. The application of live bacteria on human skin tissue was subsequently tested. Different treatments viz. overnight culture of wild type EcN, 10% zinc oxide solution, or overnight culture of EcN expressing shinorine were applied on human skin explants. Treatments were allowed to equilibrate with skin tissue for 1 hour, after which tissues were exposed to UV radiation. The tissues were then incubated for different durations and subsequently fixed. Cleaved caspase-3 immunohistochemical staining was performed to check for DNA damage. Slides were imaged using Leica Slide Scanner and representative images were captured. The captured images were quantified using ImageJ with a modified, previously published protocol (Crowe and Yue, 2019).

COC1=C(NCC(=O)O)C[C@@](O)(CO)C/C1=N\[C@@H](CO)C(=O)O [shinorine]
preventing and/or reducing UV-induced DNA damage compared to untreated group (MAA extract applied on human skin tissue, 135 mJ/cm2 UV-A and UV-B, three days post exposure, cleaved caspase-3 IHC): significantly effective
efficacy vs. 10% zinc oxide against UV-induced DNA damage (human skin tissue, 72 h post UV irradiation, comparator 10% ZnO, FIG. 7): significant efficacy; also recorded: significantly more effective

Reference: patent US12545936B2, “Expression and secretion of UV absorbent material from transformed bacteria” (University of Cincinnati, priority 2021, dated 2026)
